≈ marks a conversion by molar mass, not a printed value. Values belong to the compound of their own block, whether it stands above or below them. Calls of active or inactive are those of the source. The rule behind the calls is not given here.
Tests used:
[1] = system: Staphylococcus haemolyticus; assay: Antibacterial activity against Staphylococcus haemolyticus 15237 assessed as inhibition of bacterial growth incubated for 16 to 20 hrs; format: functional; settings: time 16-20 hrs
Klebsiella pneumoniae [2] = assay: Antibacterial activity against Klebsiella pneumoniae BAA 2473 assessed as inhibition of bacterial growth in presence of 1 microg/ml of pepsin (reference value: 1.56 to 3.13 microM); format: functional
Klebsiella pneumoniae [3] = assay: Antibacterial activity against Klebsiella pneumoniae BAA 2473 assessed as inhibition of bacterial growth in presence of 10 microg/ml of chymotrypsin (reference value: 1.56 to 3.13 microM); format: functional
[4] = system: Staphylococcus haemolyticus; assay: Bactericidal activity against Staphylococcus haemolyticus 15237 assessed as inhibition of bacterial growth incubated for 16 to 20 hrs; format: functional; settings: time 16-20 hrs
Klebsiella pneumoniae [5] = assay: Bactericidal activity against Klebsiella pneumoniae TL 297 assessed as inhibition of bacterial growth incubated for 16 to 20 hrs in presence of human serum; format: functional; settings: time 16-20 hrs
Klebsiella pneumoniae [6] = assay: Antibacterial activity against Klebsiella pneumoniae BAA 2473 assessed as inhibition of bacterial growth in presence of 10 microg/ml of pepsin (reference value: 1.56 to 3.13 microM); format: functional
Acinetobacter baumannii = assay: Bactericidal activity against Acinetobacter baumannii 10591 assessed as inhibition of bacterial growth incubated for 16 to 20 hrs in presence of human serum; format: functional; settings: time 16-20 hrs
Vibrio vulnificus [7] = assay: Bactericidal activity against Vibrio vulnificus 204 assessed as inhibition of bacterial growth incubated for 16 to 20 hrs; format: functional; settings: time 16-20 hrs
Klebsiella pneumoniae [8] = assay: Bactericidal activity against Klebsiella pneumoniae BAA 2473 assessed as inhibition of bacterial growth in presence of 1 microg/ml of proteinase K (reference value: 1.56 to 3.13 microM); format: functional
Salmonella typhimurium [9] = assay: Bactericidal activity against Salmonella typhimurium DT104 assessed as inhibition of bacterial growth incubated for 16 to 20 hrs in presence of human serum; format: functional, Salmonella enterica subsp. enterica serovar Typhimurium; settings: Salmonella enterica, time 16-20 hrs
Vibrio vulnificus [10] = assay: Antibacterial activity against Vibrio vulnificus 204 assessed as inhibition of bacterial growth incubated for 16 to 20 hrs in presence of human serum; format: functional; settings: time 16-20 hrs
Klebsiella pneumoniae [11] = assay: Bactericidal activity against Klebsiella pneumoniae BAA 2473 assessed as inhibition of bacterial growth in presence of 1 microg/ml of pepsin (reference value: 1.56 to 3.13 microM); format: functional
Klebsiella pneumoniae [12] = assay: Antibacterial activity against Klebsiella pneumoniae BAA 2473 assessed as inhibition of bacterial growth in presence of 0.1 microg/ml of trypsin (reference value: 1.56 to 3.13 microM); format: functional
Klebsiella pneumoniae [13] = assay: Bactericidal activity against Klebsiella pneumoniae BAA 2473 assessed as inhibition of bacterial growth in presence of 1 microg/ml of trypsin (reference value: 1.56 to 3.13 microM); format: functional
Klebsiella pneumoniae [14] = assay: Antibacterial activity against Klebsiella pneumoniae TL 297 assessed as inhibition of bacterial growth incubated for 16 to 20 hrs in presence of human serum; format: functional; settings: time 16-20 hrs
Salmonella typhimurium [15] = assay: Antibacterial activity against Salmonella typhimurium DT104 assessed as inhibition of bacterial growth incubated for 16 to 20 hrs; format: functional, Salmonella enterica subsp. enterica serovar Typhimurium; settings: Salmonella enterica, time 16-20 hrs
Vibrio vulnificus [16] = assay: Bactericidal activity against Vibrio vulnificus 204 assessed as inhibition of bacterial growth incubated for 16 to 20 hrs in presence of human serum; format: functional; settings: time 16-20 hrs
Klebsiella aerogenes [17] = assay: Bactericidal activity against Enterobacter aerogenes 15630 assessed as inhibition of bacterial growth incubated for 16 to 20 hrs; format: functional; settings: time 16-20 hrs
Escherichia coli [18] = assay: Antibacterial activity against Escherichia coli 10675 assessed as inhibition of bacterial growth incubated for 16 to 20 hrs; format: functional; settings: time 16-20 hrs
Salmonella enterica [19] = assay: Antibacterial activity against Salmonella enterica 15455 assessed as inhibition of bacterial growth incubated for 16 to 20 hrs in presence of human serum; format: functional; settings: time 16-20 hrs
Staphylococcus aureus [20] = assay: Bactericidal activity against Staphylococcus aureus 10780 assessed as inhibition of bacterial growth incubated for 16 to 20 hrs in presence of human serum; format: functional; settings: time 16-20 hrs
Rhizopus arrhizus = assay: Antifungal activity against Rhizopus oryzae 34550 assessed as inhibition of fungal growth incubated for 16 to 20 hrs in presence of human serum; format: functional; settings: time 16-20 hrs
Yersinia enterocolitica [21] = assay: Bactericidal activity against Yersinia enterocolitica 13999 assessed as inhibition of bacterial growth incubated for 16 to 20 hrs; format: functional; settings: time 16-20 hrs
Klebsiella pneumoniae [22] = assay: Antibacterial activity against Klebsiella pneumoniae BAA 2473 assessed as inhibition of bacterial growth in presence of 0.1 microg/ml of pepsin (reference value: 1.56 to 3.13 microM); format: functional
Klebsiella oxytoca = assay: Bactericidal activity against Klebsiella oxytoca 13985 assessed as inhibition of bacterial growth incubated for 16 to 20 hrs in presence of human serum; format: functional; settings: time 16-20 hrs
Escherichia coli [23] = assay: Bactericidal activity against Escherichia coli 10675 assessed as inhibition of bacterial growth incubated for 16 to 20 hrs; format: functional; settings: time 16-20 hrs
Klebsiella pneumoniae [24] = assay: Antibacterial activity against Klebsiella pneumoniae BAA 2473 assessed as inhibition of bacterial growth in presence of 10 microg/ml of trypsin (reference value: 1.56 to 3.13 microM); format: functional
Salmonella enterica [25] = assay: Bactericidal activity against Salmonella enterica 15455 assessed as inhibition of bacterial growth incubated for 16 to 20 hrs; format: functional; settings: time 16-20 hrs
Klebsiella pneumoniae [26] = assay: Bactericidal activity against Klebsiella pneumoniae BAA 2473 assessed as inhibition of bacterial growth in presence of 0.1 microg/ml of trypsin (reference value: 1.56 to 3.13 microM); format: functional
Staphylococcus aureus [27] = assay: Antibacterial activity against Staphylococcus aureus 10780 assessed as inhibition of bacterial growth incubated for 16 to 20 hrs in presence of human serum; format: functional; settings: time 16-20 hrs
Klebsiella aerogenes [28] = assay: Antibacterial activity against Enterobacter aerogenes 15630 assessed as inhibition of bacterial growth incubated for 16 to 20 hrs; format: functional; settings: time 16-20 hrs
Yersinia enterocolitica [29] = assay: Antibacterial activity against Yersinia enterocolitica 13999 assessed as inhibition of bacterial growth incubated for 16 to 20 hrs; format: functional; settings: time 16-20 hrs
Klebsiella pneumoniae [30] = assay: Bactericidal activity against Klebsiella pneumoniae BAA 2473 assessed as inhibition of bacterial growth in presence of 10 microg/ml of chymotrypsin (reference value: 1.56 to 3.13 microM); format: functional
Enterococcus faecium = assay: Bactericidal activity against Enterococcus faecium 10067 assessed as inhibition of bacterial growth incubated for 16 to 20 hrs in presence of human serum; format: functional; settings: time 16-20 hrs
Klebsiella pneumoniae [31] = assay: Antibacterial activity against Klebsiella pneumoniae 10692 assessed as inhibition of bacterial growth incubated for 16 to 20 hrs; format: functional; settings: time 16-20 hrs
Klebsiella pneumoniae [32] = assay: Antibacterial activity against Klebsiella pneumoniae BAA 2473 assessed as inhibition of bacterial growth incubated for 16 to 20 hrs; format: functional; settings: time 16-20 hrs
Klebsiella pneumoniae [33] = assay: Antibacterial activity against Klebsiella pneumoniae BAA 2473 assessed as bacterial eradication measured at 10 hrs; format: functional, organism-based
Lipopolysaccharide (LPS) = assay: Displacement of BODIPY-TR-cadaverine from Klebsiella pneumoniae BAA 2473 lipopolysaccharide (LPS) assessed as increase in fluorescence intensity at 1.56 uM by fluorescence spectrophotometric analysis; format: subcellular
Klebsiella pneumoniae [34] = assay: Synergistic antibacterial activity against Klebsiella pneumoniae BAA 2473 assessed as fractional inhibitory concentration index in presence of ciprofloxacin by checkerboard assay; format: functional
Klebsiella pneumoniae [35] = assay: Antibacterial activity against Klebsiella pneumoniae BAA 2473 assessed as ciprofloxacin MIC; format: functional
Klebsiella pneumoniae [36] = assay: Bactericidal activity against Klebsiella pneumoniae TL 297 assessed as inhibition of bacterial growth incubated for 16 to 20 hrs; format: functional; settings: time 16-20 hrs

MIC (Klebsiella pneumoniae [2]): > 100 µM
MIC (Klebsiella pneumoniae [3]): > 100 µM
MIC (Klebsiella pneumoniae [6]): > 100 µM
MIC (Vibrio vulnificus [10]): > 100 µM
MIC (Klebsiella pneumoniae [12]): 1.56 µM
MIC (Klebsiella pneumoniae [14]): > 100 µM
MIC (Salmonella typhimurium [15]): 6.25 µM
MIC (Escherichia coli [18]): 6.25 µM
MIC (Salmonella enterica [19]): 100 µM
MIC (Rhizopus arrhizus): > 25 µM
MIC (Klebsiella pneumoniae [22]): 1.56 µM
MIC (Klebsiella pneumoniae [24]): > 100 µM
MIC (Staphylococcus aureus [27]): > 100 µM
MIC (Klebsiella aerogenes [28]): 0.78 µM
MIC (Yersinia enterocolitica [29]): 3.13 µM
MIC (Klebsiella pneumoniae [31]): 0.78 µM
MIC (Klebsiella pneumoniae [32]): 1.56 µM
Compound: H-FIHHIIGGLFSAGKAIHRLIRRRRR-OH
MIC [1]: 1.56 µM
MBC [4]: 1.56 µM
MBC (Klebsiella pneumoniae [5]): > 100 µM
MBC (Acinetobacter baumannii): 100 µM
MBC (Vibrio vulnificus [7]): 3.13 µM
MBC (Klebsiella pneumoniae [8]): > 100 µM
MBC (Salmonella typhimurium [9]): > 100 µM
MBC (Klebsiella pneumoniae [11]): > 100 µM
MBC (Klebsiella pneumoniae [13]): > 100 µM
MBC (Vibrio vulnificus [16]): > 100 µM
MBC (Klebsiella aerogenes [17]): 6.25 µM
MBC (Staphylococcus aureus [20]): 50 µM
MBC (Yersinia enterocolitica [21]): 3.13 µM
MBC (Klebsiella oxytoca): > 100 µM
MBC (Escherichia coli [23]): 6.25 µM
MBC (Salmonella enterica [25]): < 1.56 µM
MBC (Klebsiella pneumoniae [26]): 3.13 µM
MBC (Klebsiella pneumoniae [30]): > 100 µM
MBC (Enterococcus faecium): 100 µM

Compound: CC(C)C[C@H](NC(=O)[C@H](CCCCN)NC(=O)[C@@H](CCCCN)NC(=O)[C@H](CC(C)C)NC(=O)[C@@H](N)Cc1ccccc1)C(=O)N[C@H](CC(C)C)C(=O)N[C@@H](CCCCN)C(=O)N[C@@H](C)C(=O)N[C@H](CC(C)C)C(=O)N[C@@H](Cc1ccccc1)C(=O)N[C@@H](CO)C(=O)N[C@H](C)C(=O)N1CCC[C@H]1C(=O)N[C@@H](CCCCN)C(=O)N[C@H](C)C(=O)N[C@@H](CC(C)C)C(=O)N[C@@H](CCCCN)C(=O)N[C@H](CCCNC(=N)N)C(=O)N[C@@H](CC(C)C)C(=O)N[C@@H](CC(C)C)C(=O)N[C@H](CCCNC(=N)N)C(=O)N[C@@H](CCCNC(=N)N)C(=O)N[C@@H](CCCNC(=N)N)C(=O)N[C@H](CCCNC(=N)N)C(=O)N[C@@H](CCCNC(=N)N)C(=O)O
MIC [1]: 1.56 µM (≈ 4.8 µg/mL)
MIC (Klebsiella pneumoniae [2]): 0.78 µM
MIC (Klebsiella pneumoniae [3]): 0.78 µM
MBC [4]: 1.56 µM (≈ 4.8 µg/mL)
Activity (Klebsiella pneumoniae [33]): Active
MBC (Klebsiella pneumoniae [5]): 1.56 µM
MIC (Klebsiella pneumoniae [6]): 0.78 µM
MBC (Acinetobacter baumannii): 6.25 µM
MBC (Vibrio vulnificus [7]): 12.5 µM (≈ 38.5 µg/mL)
MBC (Klebsiella pneumoniae [8]): 1.56 µM
MBC (Salmonella typhimurium [9]): 3.13 µM
MIC (Vibrio vulnificus [10]): 12.5 µM
MBC (Klebsiella pneumoniae [11]): 0.78 µM
MIC (Klebsiella pneumoniae [12]): 0.78 µM
MBC (Klebsiella pneumoniae [13]): 1.56 µM
MIC (Klebsiella pneumoniae [14]): 1.56 µM
MIC (Salmonella typhimurium [15]): 6.25 µM (≈ 19.2 µg/mL)
MBC (Vibrio vulnificus [16]): 12.5 µM
MBC (Klebsiella aerogenes [17]): 6.25 µM (≈ 19.2 µg/mL)
MIC (Escherichia coli [18]): 1.56 µM (≈ 4.8 µg/mL)
MIC (Salmonella enterica [19]): 0.78 µM
MBC (Staphylococcus aureus [20]): 100 µM
Activity (Lipopolysaccharide (LPS)): Active
MIC (Rhizopus arrhizus): 3.13 µM
MBC (Yersinia enterocolitica [21]): 3.13 µM (≈ 9.64 µg/mL)
MIC (Klebsiella pneumoniae [22]): 0.78 µM
MBC (Klebsiella oxytoca): 3.13 µM
MBC (Escherichia coli [23]): 3.13 µM (≈ 9.64 µg/mL)
MIC (Klebsiella pneumoniae [24]): 1.56 µM
MBC (Salmonella enterica [25]): 6.25 µM (≈ 19.2 µg/mL)
fractional inhibitory concentration index (FICI) (Klebsiella pneumoniae [34]): 1.003
MBC (Klebsiella pneumoniae [26]): 0.78 µM
MIC (Staphylococcus aureus [27]): 6.25 µM
MIC (Klebsiella aerogenes [28]): 1.56 µM (≈ 4.8 µg/mL)
MIC (Yersinia enterocolitica [29]): 3.13 µM (≈ 9.64 µg/mL)
MBC (Klebsiella pneumoniae [30]): 0.78 µM
MIC (Klebsiella pneumoniae [35]): 0.195 µM
MBC (Enterococcus faecium): 100 µM
MBC (Klebsiella pneumoniae [36]): 6.25 µM (≈ 19.2 µg/mL)
MIC (Klebsiella pneumoniae [31]): 3.13 µM (≈ 9.64 µg/mL)
MIC (Klebsiella pneumoniae [32]): 0.78 µM (≈ 2.4 µg/mL)

— ChEMBL document CHEMBL5505958, “Optimization of sequence and chiral content enhances therapeutic potential of tilapia piscidin peptides” (Eur J Med Chem, 2024)
